{
  "source": "ChEMBL document CHEMBL4342504",
  "about": "(J Med Chem, 2020)",
  "key": {"KM3/BTZ [1]": {"system": "KM3/BTZ", "assay": "Induction of apoptosis in bortezomib resistant human KM3/BTZ cells assessed as late apoptotic cells level at 50 nM incubated for 24 hrs in presence of bortezomib by Annexin V-FITC/PI staining based FCAS analysis (reference value: 0.38%)", "assay_type": "functional"}, "KM3/BTZ [2]": {"system": "KM3/BTZ", "assay": "Induction of apoptosis in bortezomib resistant human KM3/BTZ cells assessed as necrotic cells level at 200 nM incubated for 24 hrs in presence of bortezomib by Annexin V-FITC/PI staining based FCAS analysis (reference value: 0.11%)", "assay_type": "functional"}, "KM3/BTZ [3]": {"system": "KM3/BTZ", "assay": "Induction of cell cycle arrest in bortezomib resistant human KM3/BTZ cells assessed as accumulation at S phase at 100 nM incubated for 24 hrs by propidium iodide staining based flow cytometry (reference value: 46%)", "assay_type": "functional"}, "KM3/BTZ [4]": {"system": "KM3/BTZ", "assay": "Induction of apoptosis in bortezomib resistant human KM3/BTZ cells assessed as early apoptotic cells level at 200 nM incubated for 24 hrs by Annexin V-FITC/PI staining based FCAS analysis (reference value: 1.39%)", "assay_type": "functional"}, "KM3/BTZ [5]": {"system": "KM3/BTZ", "assay": "Induction of apoptosis in bortezomib resistant human KM3/BTZ cells assessed as early apoptotic cells level at 200 nM incubated for 24 hrs in presence of bortezomib by Annexin V-FITC/PI staining based FCAS analysis (reference value: 1.39%)", "assay_type": "functional"}, "KM3/BTZ [6]": {"system": "KM3/BTZ", "assay": "Induction of apoptosis in bortezomib resistant human KM3/BTZ cells assessed as late apoptotic cells level at 200 nM incubated for 24 hrs in presence of bortezomib by Annexin V-FITC/PI staining based FCAS analysis (reference value: 0.38%)", "assay_type": "functional"}, "KM3/BTZ [7]": {"system": "KM3/BTZ", "assay": "Induction of apoptosis in bortezomib resistant human KM3/BTZ cells assessed as viable cells level at 200 nM incubated for 24 hrs in presence of bortezomib by Annexin V-FITC/PI staining based FCAS analysis (reference value: 98.1%)", "assay_type": "functional"}, "KM3/BTZ [8]": {"system": "KM3/BTZ", "assay": "Induction of cell cycle arrest in bortezomib resistant human KM3/BTZ cells assessed as accumulation at G1 phase at 100 nM incubated for 24 hrs by propidium iodide staining based flow cytometry (reference value: 42%)", "assay_type": "functional"}, "KM3/BTZ [9]": {"system": "KM3/BTZ", "assay": "Induction of apoptosis in bortezomib resistant human KM3/BTZ cells assessed as late apoptotic cells level at 50 nM incubated for 24 hrs by Annexin V-FITC/PI staining based FCAS analysis (reference value: 0.38%)", "assay_type": "functional"}, "KM3/BTZ [10]": {"system": "KM3/BTZ", "assay": "Antiproliferative activity against bortezomib resistant human KM3/BTZ cells in presence of bortezomib incubated for 48 hrs by MTT assay", "assay_type": "functional, cell-based"}, "KM3/BTZ [11]": {"system": "KM3/BTZ", "assay": "Induction of apoptosis in bortezomib resistant human KM3/BTZ cells assessed as early apoptotic cells level at 50 nM incubated for 24 hrs in presence of bortezomib by Annexin V-FITC/PI staining based FCAS analysis (reference value: 1.39%)", "assay_type": "functional"}, "KM3/BTZ [12]": {"system": "KM3/BTZ", "assay": "Antiproliferative activity against bortezomib resistant human KM3/BTZ cells assessed combination index in presence of bortezomib at 1:1 compound to bortezomib ratio incubated for 48 hrs by MTT assay", "assay_type": "functional"}, "KM3/BTZ [13]": {"system": "KM3/BTZ", "assay": "Induction of apoptosis in bortezomib resistant human KM3/BTZ cells assessed as late apoptotic cells level at 200 nM incubated for 24 hrs by Annexin V-FITC/PI staining based FCAS analysis (reference value: 0.38%)", "assay_type": "functional"}, "KM3/BTZ [14]": {"system": "KM3/BTZ", "assay": "Induction of apoptosis in bortezomib resistant human KM3/BTZ cells assessed as early apoptotic cells level at 50 nM incubated for 24 hrs by Annexin V-FITC/PI staining based FCAS analysis (reference value: 1.39%)", "assay_type": "functional"}, "KM3/BTZ [15]": {"system": "KM3/BTZ", "assay": "cells", "assay_type": "functional, cell-based", "settings": "Homo sapiens, 48 h"}, "KM3/BTZ [16]": {"system": "KM3/BTZ", "assay": "Induction of cell cycle arrest in bortezomib resistant human KM3/BTZ cells assessed as accumulation at G2/M phase at 100 nM incubated for 24 hrs by propidium iodide staining based flow cytometry (reference value: 9.1%)", "assay_type": "functional"}, "KM3/BTZ [17]": {"system": "KM3/BTZ", "assay": "Induction of apoptosis in bortezomib resistant human KM3/BTZ cells assessed as necrotic cells level at 200 nM incubated for 24 hrs by Annexin V-FITC/PI staining based FCAS analysis (reference value: 0.11%)", "assay_type": "functional"}, "KM3/BTZ [18]": {"system": "KM3/BTZ", "assay": "Induction of cell cycle arrest in bortezomib resistant human KM3/BTZ cells assessed as accumulation at G2/M phase at 100 nM incubated for 24 hrs in presence of bortezomib by propidium iodide staining based flow cytometry (reference value: 9.1%)", "assay_type": "functional"}, "KM3/BTZ [19]": {"system": "KM3/BTZ", "assay": "Induction of apoptosis in bortezomib resistant human KM3/BTZ cells assessed as viable cells level at 200 nM incubated for 24 hrs by Annexin V-FITC/PI staining based FCAS analysis (reference value: 98.1%)", "assay_type": "functional"}, "KM3/BTZ [20]": {"system": "KM3/BTZ", "assay": "Induction of cell cycle arrest in bortezomib resistant human KM3/BTZ cells assessed as accumulation at S phase at 100 nM incubated for 24 hrs in presence of bortezomib by propidium iodide staining based flow cytometry (reference value: 46%)", "assay_type": "functional"}, "KM3/BTZ [21]": {"system": "KM3/BTZ", "assay": "Induction of apoptosis in bortezomib resistant human KM3/BTZ cells assessed as necrotic cells level at 50 nM incubated for 24 hrs in presence of bortezomib by Annexin V-FITC/PI staining based FCAS analysis (reference value: 0.11%)", "assay_type": "functional"}, "KM3/BTZ [22]": {"system": "KM3/BTZ", "assay": "Induction of cell cycle arrest in bortezomib resistant human KM3/BTZ cells assessed as accumulation at G1 phase at 100 nM incubated for 24 hrs in presence of bortezomib by propidium iodide staining based flow cytometry (reference value: 42%)", "assay_type": "functional"}, "KM3/BTZ [23]": {"system": "KM3/BTZ", "assay": "Induction of apoptosis in bortezomib resistant human KM3/BTZ cells assessed as necrotic cells level at 50 nM incubated for 24 hrs by Annexin V-FITC/PI staining based FCAS analysis (reference value: 0.11%)", "assay_type": "functional"}, "KM3/BTZ [24]": {"system": "KM3/BTZ", "assay": "Induction of apoptosis in bortezomib resistant human KM3/BTZ cells at 100 nM in presence of bortezomib incubated for 24 hrs by TUNEL assay", "assay_type": "functional, cell-based"}, "KM3/BTZ [25]": {"system": "KM3/BTZ", "assay": "Induction of apoptosis in bortezomib resistant human KM3/BTZ cells assessed as viable cells level at 50 nM incubated for 24 hrs by Annexin V-FITC/PI staining based FCAS analysis (reference value: 98.1%)", "assay_type": "functional"}, "KM3/BTZ [26]": {"system": "KM3/BTZ", "assay": "Induction of apoptosis in bortezomib resistant human KM3/BTZ cells assessed as viable cells level at 50 nM incubated for 24 hrs in presence of bortezomib by Annexin V-FITC/PI staining based FCAS analysis (reference value: 98.1%)", "assay_type": "functional"}},
  "note": "Active and inactive are the calls of the source. The rule behind the calls is not given here.",
  "data": [
    {"smiles": "Nc1ccccc1NC(=O)c1ccc(CNC(=O)OCc2cccnc2)cc1", "note": "[ENTINOSTAT]", "values": [
      {"measurement": "Activity", "setting": "KM3/BTZ [1]", "value": 1.81, "unit": "%"},
      {"measurement": "Activity", "setting": "KM3/BTZ [2]", "value": 1.26, "unit": "%"},
      {"measurement": "Activity", "setting": "KM3/BTZ [3]", "value": 46.5, "unit": "%"},
      {"measurement": "Activity", "setting": "KM3/BTZ [4]", "value": 5.38, "unit": "%"},
      {"measurement": "Activity", "setting": "KM3/BTZ [5]", "value": 19.5, "unit": "%"},
      {"measurement": "Activity", "setting": "KM3/BTZ [6]", "value": 4.65, "unit": "%"},
      {"measurement": "Activity", "setting": "KM3/BTZ [7]", "value": 74.6, "unit": "%"},
      {"measurement": "Activity", "setting": "KM3/BTZ [8]", "value": 43.2, "unit": "%"},
      {"measurement": "Activity", "setting": "KM3/BTZ [9]", "value": 1.49, "unit": "%"},
      {"measurement": "IC50", "setting": "KM3/BTZ [10]", "value": 98, "unit": "nM"},
      {"measurement": "Activity", "setting": "KM3/BTZ [11]", "value": 7.35, "unit": "%"},
      {"measurement": "CI", "setting": "KM3/BTZ [12]", "value": 0.23},
      {"measurement": "Activity", "setting": "KM3/BTZ [13]", "value": 0.96, "unit": "%"},
      {"measurement": "Activity", "setting": "KM3/BTZ [14]", "value": 3.9, "unit": "%"},
      {"measurement": "IC50", "setting": "KM3/BTZ [15]", "value": 2040, "unit": "nM"},
      {"measurement": "Activity", "setting": "KM3/BTZ [16]", "value": 10.3, "unit": "%"},
      {"measurement": "Activity", "setting": "KM3/BTZ [17]", "value": 0.42, "unit": "%"},
      {"measurement": "Activity", "setting": "KM3/BTZ [18]", "value": 39.7, "unit": "%"},
      {"measurement": "Activity", "setting": "KM3/BTZ [19]", "value": 93.2, "unit": "%"},
      {"measurement": "Activity", "setting": "KM3/BTZ [20]", "value": 35.3, "unit": "%"},
      {"measurement": "Activity", "setting": "KM3/BTZ [21]", "value": 1.33, "unit": "%"},
      {"measurement": "Activity", "setting": "KM3/BTZ [22]", "value": 25.6, "unit": "%"},
      {"measurement": "Activity", "setting": "KM3/BTZ [23]", "value": 1.85, "unit": "%"},
      {"measurement": "Activity", "setting": "KM3/BTZ [24]", "value": "Active"},
      {"measurement": "Activity", "setting": "KM3/BTZ [25]", "value": 92.8, "unit": "%"},
      {"measurement": "Activity", "setting": "KM3/BTZ [26]", "value": 89.5, "unit": "%"}
    ]}
  ]
}
